Several values for one entry are separate records, joined by “and”; a condition that tells them apart may be missing. Identical values can stand only once. Like-named read-outs stand apart in the source and are kept apart here.
Tests used:
[1] = Melphalan test dose and full dose pharmacokinetics in patients undergoing RIC allogeneic HCT for non-malignant disorders (Bayesian analysis of plasma concentrations); type: in vivo, human; details: for AUC: human, plasma, intravenous; for Distribution of AUC (h * μg/mL): 3.5-≤6.5 / Distribution of AUC (h * μg/mL): <3.5 / Distribution of AUC (h * μg/mL): >6.5: share of transplants
Procedure: Patients undergoing allogeneic HCT for non-malignant disorders with a uniform RIC regimen that included alemtuzumab, fludarabine and melphalan were enrolled in this study. Full standard dose of melphalan was set as follows: • 140 mg/m^2 in patients having a body weight >10 kg, • 4.7 mg/kg in patients having a body weight <10 kg, and • 70 mg/m^2 in one patient with a radio sensitivity disorder.
The patients were given a test dose of melphalan (10% of the standard full dose) prior to start of their preparative regimen. Test dose of 10% of the full standard dose was determined to be the lowest dose level that would be measurable for a sufficiently long time interval (0-4h) to allow reliable AUC estimation. Accordingly, the test doses used in this study were 14 mg/m^2, 7 mg/m^2 and 0.47 mg/kg for patients having the standard full doses of 140 mg/m^2, 70 mg/m^2 and 4.7 mg/kg, respectively.
Blood samples were obtained for PK measurement after the administration of test dose and the full standard dose of melphalan. A total of 10 blood samples were obtained around each dose of melphalan: at baseline (5-10 min prior to start of the melphalan infusion of) and then approximately at 5 min, 15 min, 30 min, 45 min, 60 min, 2 hour, 2.5, 4, and 6 hours after the end of the melphalan infusion. Samples were collected on ice and transported to the institution's mass spectrometry laboratory for instant analysis by PS-MS/MS and conventional LC-MS/MS. Patient data collected for analysis included baseline organ function, presence of oral and gastrointestinal mucositis, renal and liver dysfunction including VOD, initial donor chimerism, graft rejection, and acute and chronic GVHD (aGVHD and cGVHD). The Common Terminology Criteria for Adverse Events (CTCAE) version 4.0 was used to evaluate adverse events. Acute and chronic GVHD were assessed by standardized published criteria. See, e.g., Glucksberg H, et al. Transplantation. 1974; 18:295-304 and Filipovich A H, et al. Biol Blood Marrow Transplant. 2005; 11:945-956. Interim analyses were completed after enrollment of 5 patients and 10 patients respectively to validate data following 25% and 50% of intended total patient enrollment. The AUC range that led to full donor chimerism without excess toxicity in majority of patients was selected to be the desired target AUC for full dose adjustment. In patients with baseline impaired organ function, personalized full dose melphalan was adjusted to limit toxicity if test dose PK predicted standard full dose AUC was higher than the desired target AUC range.
Melphalan levels were measured by validated PS-MS/MS and LC-MS\MS methods (Mirkou A, etc., J Chromatogr B Analyt Technol Biomed Life Sci. 2009; 877:3089-3096). For the PS-MS/MS method, all samples were analyzed using an automated Paper Spray ion source (Prosolia, Inc. Indianapolis, Ind.) interfaced with a TSQ Quantum Ultra mass spectrometer (Thermo Scientific, San Jose, Calif.) operated in selected reaction monitoring (SRM) mode. XCalibur software was used to control the MS and to process data. Specific precursor/product ions were simultaneously monitored for melphalan and its stable isotopically-labelled internal standard (D8-melphalan) by collision-induced dissociation (CID). Blood samples were prepared by spiking known amounts of melphalan standards and the internal standard into drug free human blood to establish a calibration curve and quality control samples. A small amount of patient's blood […] equilibrated with D8-melphalan solution was deposited on the Paper Spray cartridge and dried. A small volume of solvent optimized to efficiently extract the drug was applied to the paper. A stepwise high voltage (3-5 kV) was then applied inducing an electrospray ionization at the tip of the paper; the solvent evaporates from the droplets generating gas phase ions of the analyte, which then can be detected by a mass spectrometer. […]

[2] = cited from earlier work
[3] = a 4-month infant, normal renal and liver function for age
[4] = median and range, 16 patients with normal organ function
[5] = median and range, 17 patients who received standard full dose
[6] = median and range, patients <10 kg, normal organ function, n=5, dose 0.47 mg/kg, 0.47 mg/kg
[7] = median and range, patients >10 kg, normal organ function, n=11, dose 14 mg/m^2
[8] = median and range, six patients (7 transplants) with impaired organ function, adjusted full dose
[9] = median, PK-adjusted full dose, N = 6 (7)

N[C@@H](Cc1ccc(N(CCCl)CCCl)cc1)C(=O)O [melphalan, 4-[Bis(2-chloroethyl)amino]-L-phenylalanine]
test dose clearance [1, 3]: 15.7 L/h/70 kg
test dose predicted full dose AUC [1, 3]: 11.1 µg·h/mL
AUC ([1]; 0.44 mg/kg, sixth patient, initial HCT, full dose 0.44 mg/kg (9.3% of standard dose), read-out: AUC achieved): 1100 ng·h/mL
AUC ([1]; 0.47 mg/kg, median and range, patients <10 kg, normal organ function, n=5, dose 0.47 mg/kg, read-out: test dose AUC): 560 ng·h/mL
AUC ([1]; 1.2 mg/kg, sixth patient, second HCT, full dose 1.2 mg/kg (25.5% of standard dose), read-out: actual observed AUC): 3900 ng·h/mL
AUC ([1]; 4.7 mg/kg, infant who developed VOD, read-out: full dose melphalan AUC): 6900 ng·h/mL
AUC ([1]; 4.7 mg/kg, median and range, patients <10 kg, standard dose 4.7 mg/kg, n=6, read-out: full dose AUC): 4800 ng·h/mL
AUC ([1]; 14 mg/m2, median and range, patients >10 kg, normal organ function, n=11, dose 14 mg/m^2, read-out: test dose AUC): 520 ng·h/mL
AUC ([1]; 70 mg/m^2, patient with VOD and diffuse alveolar hemorrhage, ataxia telangiectasia, read-out: full dose melphalan AUC): 5000 ng·h/mL
AUC ([1]; 140 mg/m2, median and range, patients >10 kg, standard dose 140 mg/m2, n=11, read-out: full dose AUC): 5500 ng·h/mL
AUC ([1]; 140 mg/m2, patient with grade 4 mucositis and gastrointestinal bleeding, read-out: full dose AUC (highest melphalan exposure)): 9500 ng·h/mL
AUC ([1]; five patients, adjusted full dose 29% to 70% of standard dose, read-out: actual observed AUC with the adjusted dose): 3600 to 5400 ng·h/mL
AUC ([1]; median and range, 16 patients with normal organ function, read-out: test dose AUC): 550 ng·h/mL
AUC ([1]; median and range, 17 patients who received standard full dose, read-out: full dose AUC): 5500 ng·h/mL
AUC ([1]; median and range, six patients (7 transplants) with impaired organ function, adjusted full dose, read-out: test dose AUC): 840 ng·h/mL
AUC ([1]; median in the 12/17 (70.6%) patients with AUC between 3.5 and 6.5, read-out: full dose AUC): 5200 ng·h/mL
AUC ([1]; median, PK-adjusted full dose, N = 6 (7), read-out: Full dose AUC): 3900 ng·h/mL
AUC ([1]; median, PK-adjusted full dose, N = 6 (7), read-out: Test dose AUC): 840 ng·h/mL
AUC ([1]; median, Standard full dose, N = 16 (16), read-out: Test dose AUC): 550 ng·h/mL
AUC ([1]; median, Standard full dose, N = 17 (17), read-out: Full dose AUC): 5500 ng·h/mL
AUC ([1]; median, Total, N = 22 (23), read-out: Test dose AUC): 590 ng·h/mL
AUC ([1]; median, Total, N = 23 (24), read-out: Full dose AUC): 5000 ng·h/mL
AUC ([1]; patient with normal organ function who developed grade 4 gastrointestinal mucositis, read-out: full dose AUC): 9500 ng·h/mL
AUC ([1]; patients with impaired organ function, adjusted full dose, read-out: observed AUC based on the test dose PK guided adjustment): 3900 ± 1400 ng·h/mL
AUC ([1]; full dose melphalan, RIC HCT for non-malignant disorders, read-out: AUC range well tolerated without excess toxicity and sufficient to facilitate engraftment with full donor chimerism): 3500 to 6500 ng·h/mL
FCLstd (body weight normalized clearance by allometric scaling) ([1]; individual patients, full dose): 27.4 L/h/70 kg and 46.9 L/h/70 kg and 43.1 L/h/70 kg and 66.8 L/h/70 kg and 30.2 L/h/70 kg and 59.4 L/h/70 kg and 62.8 L/h/70 kg and 38.9 L/h/70 kg and 18.6 L/h/70 kg and 38.3 L/h/70 kg and 42.7 L/h/70 kg and 18.8 L/h/70 kg and 33.9 L/h/70 kg and 38.0 L/h/70 kg and 29.4 L/h/70 kg and 15.1 L/h/70 kg and 25.0 L/h/70 kg and 12.3 L/h/70 kg and 43.5 L/h/70 kg and 36.9 L/h/70 kg and 19.7 L/h/70 kg and 50.6 L/h/70 kg and 34.5 L/h/70 kg
Predicted FAUC (test dose PK evaluation) ([1]; individual patients, full dose AUC predicted from test dose PK): 2.9 mg · h/L and 6.5 mg · h/L and 5.9 mg · h/L and 5.1 mg · h/L and 5.2 mg · h/L (3×) and 5.7 mg · h/L (2×) and 14.0 mg · h/L and 14.5 mg · h/L and 7.2 mg · h/L and 5.6 mg · h/L and 4.8 mg · h/L and 6.1 mg · h/L and 5.5 mg · h/L and 11.6 mg · h/L and 11.1 mg · h/L and 16.8 mg · h/L and 7.1 mg · h/L and 13.8 mg · h/L and 4.4 mg · h/L and 7.4 mg · h/L
TCLstd (test dose body weight normalized clearance by allometric scaling) ([1]; individual patients, test dose): 47.3 L/h/70 kg and 44.0 L/h/70 kg and 38.8 L/h/70 kg and 56.2 L/h/70 kg and 52.2 L/h/70 kg and 47.8 L/h/70 kg and 49.5 L/h/70 kg and 12.1 L/h/70 kg and 45.2 L/h/70 kg and 18.5 L/h/70 kg and 33.1 L/h/70 kg and 27.5 L/h/70 kg and 33.9 L/h/70 kg and 27.0 L/h/70 kg and 32.3 L/h/70 kg and 13.6 L/h/70 kg and 15.7 L/h/70 kg and 11.3 L/h/70 kg and 35.9 L/h/70 kg and 49.6 L/h/70 kg and 19.2 L/h/70 kg and 67.1 L/h/70 kg and 32.8 L/h/70 kg
predicted AUC for standard full dose melphalan [1, 4]: 2.9 to 11.1 µg·h/mL and 5.5 µg·h/mL
test dose AUC [1, 4]: 0.29 to 1.1 µg·h/mL
full dose AUC [1, 5]: 3.0 to 9.5 µg·h/mL
full dose clearance [1, 5]: 38.3 L/h/70 kg and 25.0-66.8 L/h/70 kg
test dose AUC [1, 6]: 0.48 to 1.11 µg·h/mL
test dose clearance [1, 6]: 27.6 L/hr./70 kg and 15.7-34.0 L/hr./70 kg
full dose AUC ([1]; median and range, patients <10 kg, standard dose 4.7 mg/kg, n=6, 4.7 mg/kg): 3.0 to 6.9 µg·h/mL
test dose AUC [1, 7]: 0.29 to 0.72 µg·h/mL
test dose clearance [1, 7]: 47.8 L/h/70 kg and 33.1-67.2 L/h/70 kg
full dose AUC ([1]; median and range, patients >10 kg, standard dose 140 mg/m2, n=11): 4.1 to 9.5 µg·h/mL
test dose PK predicted AUC for standard full dose ([1]; median and range, six patients (7 transplants) with impaired organ function): 13.8 µg·h/mL and 11.1 to 16.4 µg·h/mL
test dose AUC [1, 8]: 0.7 to 1.45 µg·h/mL
test dose clearance [1, 8]: 18.5 L/hr./70 kg and 11.3-35.9 L/hr./70 kg
Test dose PK predicted full close AUC ([1]; median, PK-adjusted full dose): 13.8 µg·h/mL
Full dose CL [1, 9]: 18.8 L/h/70 kg
Test dose CL [1, 9]: 45.2 L/h/70 kg
Test dose PK predicted full close AUC ([1]; median, Standard full dose): 5.7 µg·h/mL
Test dose CL ([1]; median, Standard full dose, N = 16 (16)): 18.5 L/h/70 kg
Full dose CL ([1]; median, Standard full dose, N = 17 (17)): 38.3 L/h/70 kg
Test dose PK predicted full close AUC ([1]; median, Total): 5.9 µg·h/mL
Test dose CL ([1]; median, Total, N = 22 (23)): 33.9 L/h/70 kg
Full dose CL ([1]; median, Total, N = 23 (24)): 37.4 L/h/70 kg
full dose AUC if given standard full dose ([1]; patients with impaired organ function, predicted from test dose PK): 11.0 ± 3.6 µg·h/mL
Distribution of AUC (h * μg/mL): 3.5-≤6.5 ([1]; PK-adjusted full dose): 85.7%
Distribution of AUC (h * μg/mL): <3.5 ([1]; PK-adjusted full dose): 14.3%
Distribution of AUC (h * μg/mL): >6.5 ([1]; PK-adjusted full dose): 0.0%
Distribution of AUC (h * μg/mL): 3.5-≤6.5 ([1]; Standard full dose): 70.6%
Distribution of AUC (h * μg/mL): <3.5 ([1]; Standard full dose): 5.9%
Distribution of AUC (h * μg/mL): >6.5 ([1]; Standard full dose): 23.5%
Distribution of AUC (h * μg/mL): 3.5-≤6.5 ([1]; Total): 75.0%
Distribution of AUC (h * μg/mL): <3.5 ([1]; Total): 8.3%
Distribution of AUC (h * μg/mL): >6.5 ([1]; Total): 16.7%
inter-patient variability in melphalan exposure ([2]; adults undergoing autologous HCT for multiple myeloma): up to 5 fold
contribution of renal elimination to melphalan clearance ([2]; in vivo): low
penetration into cerebrospinal fluid (CSF) ([2]; in vivo): low
steady-state volume of distribution ([2]; in vivo): about 0.5 L/kg

— US20220205982A1 (CHILDREN'S HOSPITAL MEDICAL CENTER, priority 2019, published 2022)
